Test results reported in patent US20070099822A1, “Regulation of tissue mineralization and phosphate metabolism by asarm peptides” (priority 2003, published 2007).
Like-named read-outs stand apart in the source and are kept apart here. Ends that are not written are not given here.

Assays:
[1] = tested on: mouse osteoblast cell-line 2T3; test: Mineralized bone matrix formation assay (von Kossa), BMP2-induced; type: cell-based; details: 2T3 cells, BMP2 100 ng/mL; Hu-MEPE 10-800 ng/mL, ASARM-peptide 60 and 300 ng/mL, control peptide 300 ng/mL
Source text: Mineralized bone matrix formation assay. A mouse osteoblast cell-line (2T3-cells) were monitored using a mineralized matrix formation assay as described by Bhargava et al. (Ultrastructural analysis of bone nodules formed in vitro by isolated fetal rat calvaria cells. Bone 9:155-63, 1988) and cultured as described previously (Bhargava et al., supra; Chen et al. Differential roles for bone morphogenetic protein (BMP) receptor type IB and IA in differentiation and specification of mesenchymal precursor cells to osteoblast and adipocyte lineages. J Cell Biol 142:295-305, 1998; and Zhao, et al. Bone morphogenetic protein receptor signaling is necessary for normal murine postnatal bone formation. J Cell Biol 157:1049-60, 2002). Mineralization of the murine osteoblastic 2T3 cell-line has been extensively studied using physical techniques, electron microscopy and histological techniques. This cell line (2T3) undergoes exogenous BMP2-induced mineralized-matrix indistinguishable from normal bone-mineral hydroxyapatite in-vitro (Bhargava et al., supra; Chen et al., supra; and Zhao et al., supra). The cells were plated in 24-well culture plates at density of 2×10^4 cells/well and cultured with minimal essential medium (MEM) supplemented with 10% FCS. When the cells reached confluency (day 0), the medium was changed to MEM containing 5% FCS, 100 μg/mL ascorbic acid and 5 mM β-glycerol phosphate with or without 100 ng/mL of BMP-2. The effects of Hu-MEPE, MEPE ASARM-peptide and control peptide at different doses (see results section) in the absence and presence of BMP2 were measured using the von Kossa stain for mineralization. The medium was changed every other day and fresh reagents were added. Von Kossa stain of mineralized bone matrix was performed as follows. The cell cultures were washed with PBS twice, fixed in phosphate buffered formalin for 10 min, and then washed with water, and serially dehydrated in 70%, 95%, and 100% ethanol, twice each and air dried. The plates were rehydrated from 100% to 95% to 80% ethanol to water before staining. The water was removed, a 2% silver nitrate solution was added, and the plates were exposed to sunlight for 20 min, after which the plates were rinsed with water. 5% sodium thiosulfate was added for 3 min and the plates were then rinsed with water. The modified van Gieson stain was then used as a counterstain after the von Kossa stain. The unmineralized collagen matrix can be recognized by the yellow/red van Gieson stain. The acid fuchsin solution (5 part of 1% acid fuchsin, 95 part of picric acid, and 0.25 part of 12 M HCl) was added for 5 min. The plates were washed with water, and then 2×95% ethanol and 2×100% ethanol, and dried for image analysis. The area of von Kossa stained matrix was quantitated as previously described (Chen et al., supra). Briefly matrix was quantified by automated image analysis using a video analysis program (Jandel Scientific, San Rafael Calif.) and also a Bio-Rad (Hercules, Calif.) Quantity-1 image analysis capture program. A video screen camera (CCD/RGB; Sony Corp., Park Ridge, N.J.) linked to a microscope (model BH2; Olympus Corp., Precision Instruments Division, Lake Success, N.Y.) equipped with metallurgical lens was used to image plates.

Male ICR-Swiss mice = test: Intraperitoneal administration of Hu-MEPE and PTH (1-34) into mice, serum and urine assays; type: in vivo
Experimental: Intraperitoneal administration of Hu-MEPE and PTH (1-34) into mice. Male ICR-Swiss mice were used as recipients for intraperitoneal administration (100 μl) of 0.1% phosphate-buffered saline/0.1% bovine serum albumin (vehicle) and experimental conditions (Hu-MEPE and PTH 1-34) dissolved in 100 μL of vehicle. Two separate (repeat) experiments were conducted consisting of four groups with 6 and 7 animals per group. The control group was administered with 100 μL of vehicle (Group-1). Group-2 consisted of animals administered with 0.8 μg/injection of parathyroid hormone (PTH 1-34). Group 3 were injected with 0.4 μg/injection of Hu-MEPE and Group-4 with 4 μg/injection of Hu-MEPE. On day one, three bolus injections were given at 0, 3 h, and 6 h. Serum samples were then collected via retro-orbital bleed one hour after the 6 h bolus administration. The next day or 30 hours after the first bolus a fourth bolus (same amount) was given and after 1 h the animals were sacrificed and serum prepared after cardiac exsanguination. The total amounts of PTH and MEPE administered over the 30 h were 80 μg/kg/30 h PTH 1-34, 40 μg/kg/30 h Hu-MEPE (MEPE-40) and 400 μg/kg/30 h Hu-MEPE (MEPE-400). Each group was placed in a separate metabolic cage and urine was collected for the 6-hour period. After the first 6-hour urine collection mice were replaced in thoroughly cleaned metabolic cages for the remaining 24 hours. The second 24-hour urine was collected immediately after the animals were sacrificed. The urine volumes for the second and first collections were measured. Collecting urine samples from large numbers of small mice over the time frame of the experiment was not feasible. Therefore, urine samples from each group (n=7) were pooled and volumes measured via a specially designed collecting duct in the metabolic cage. To ensure reproducibility the experiment was repeated twice (the same changes occurred). To calculate the fractional excretion of phosphate (FEP) the following equation was used: 100−(100×(1−(A/B))) where A=(urine phosphorus in mg/dL)×(serum creatinine in mg/dL) and B=(urine creatinine in mg/dL)×(serum phosphorus in mg/dL). To calculate renal phosphorus clearance (RPC) in mL/minute following computation was used: (urine phosphorus in mg/dL)×(urinary volume in mL)/((serum phosphorus in mg/dL)×(time of collection in minutes)). The phosphate excretion index (PEI) was calculated using the same method described by Shimada et al. (Cloning and characterization of FGF23 as a causative factor of tumor-induced osteomalacia, Proc Natl Acad Sci USA 98:6500-6505, 2001) using the following formula: ((urinary concentration of phosphorus in mg/dL)/(serum concentration of phosphorus in mg/dL))/(total urinary creatinine in mg).
Serum and urine assays. Serum and urine assays for phosphate, calcium, chloride, potassium, creatinine, glucose and alkaline phosphatase were accomplished using 96 well format KC4-spectrophotometer multiplate kinetic/end-point analyses using routine methods and diagnostic-kits Sigma-Diagnostics). Serum 1,25-dihydroxy vitamin-D3 levels were estimated using the method of Reinhardt, et al. (A microassay for 1,25-dihydroxyvitamin D not requiring high performance liquid chromatography: application to clinical studies, J Clin Endocrinol Metab 58:91-98, 1984). Analysis of data for fractional excretion of phosphate (FEP) was carried out following the same method described previously by Shimada et al. (Mutant FGF-23 responsible for autosomal dominant hypophosphatemic rickets is resistant to proteolytic cleavage and causes hypophosphatemia in vivo, Endocrinology 143:3179-82, 2002) for FGF23 bolus administration studies and by Nesbitt et al. (Crosstransplantation of kidneys in normal and Hyp mice: Evidence that the Hyp mouse phenotype is unrelated to an intrinsic renal defect, J Clin Invest 89:1453-59, 1992) for renal cross-transplantation experiments in Hyp mice.
Statistical methods. […]

[2] = tested on: Na+ dependent phosphate co-transport in human renal proximal tubule cell-line (Hu-CL8); test: 33PO4 uptake scintillation proximity assay (SPA) in Hu-CL8; type: cell-based; details: Hu-CL8
Experimental: Measurement of ^33PO4 uptake and ^14C-α-methyl D-glucose uptake. A novel technique, scintillation proximity assay (SPA), was used to measure ^33PO4 uptake in-vitro. Human renal proximal-tubule primary cells (RPTEC) were purchased from Clonetics-Biowhittaker (Walkersville, Md.) (cat. no. CC2553) and were cultured and subcultured using the manufacturers recommended protocols, methods, buffers and media (cat. nos. CC3190, CC5034). Also a human renal cell-line (Hu-CL8) was cultured as previously described (Rowe et al. Candidate 56 and 58 kDa protein(s) responsible for mediating the renal defects in oncogenic hypophosphatemic osteomalacia. Bone 18(2):159-169, 1996). For ^33PO4-uptake measurement cells were grown in REBM media supplemented with 5% fetal calf serum (REBM-FCS) to 80% confluence (Clonetics-Biowhitaker, Walkersville, Md.: cat. nos. CC2553, CC3190 and CC5034) and seeded into 96 well (3000 cells/well) cytostar-T scintillating-microplates (Amersham-Pharmacia Biotech, Piscataway, N.J.: cat. no. RPNQ 0162). Cells were then cultured in 200 μL of REBM-FCS media for 24 h. Media was then replaced with serum free media (REBM) and the cells incubated for a further 3-4 h with Hu-MEPE, PTH (1-34) or media control respectively in REBM media. The concentrations of PTH (1-34) and Hu-MEPE were […] and each experimental dose was repeated eight times for statistical analysis. Following incubation media was removed and replaced with either phosphate uptake buffer (PUB) consisting of 150 mM NaCl/1 mM Cacl2/1.8 mM MgSO4/10 mM HEPE pH 7.0/0.1 mM phosphate buffer pH 7.0 and 3 uCi mL^−1 33P as orthophosphoric acid (18 MBq/mL or 5775.7 Gbq/mg stock solution Perkin Elmer, Wellesley, Mass.: cat. no. NEZ080). In order to determine the Na-dependent phosphate co-transporter activity a separate set of control cells were incubated with the same buffer but with choline chloride (150 mM) substituted for NaCl (CHUB buffer). […] Due to the unique design of the 96 well cytostar-plate radioactive decay in solution is not detected by the counter. In contrast, radioisotope attached to or taken into the cells initiates release of plastic-scintillant photons that are detected by the top-counter photo-multiplier tube. Thus, no washes are required and direct CPM can be counted in living cells. […] Conversion of a tetrazolium salt to a colored formazan product by living cells was then measured at 490 nm using a 96 well multi-well spectrophotometer with KC-4 software (absorbance at 490 nm is directly proportional to the number of living cells). Na-dependent ^33P uptake was then calculated by subtracting background counts and the choline chloride non Na-dependent ^33P uptake and results expressed as ^33PO4 femtomoles/10^4-cells/6 min. […]

[3] = tested on: Na+ dependent phosphate co-transport in primary human renal proximal tubule epithelial cells (RPTEC); test: 33PO4 uptake scintillation proximity assay (SPA) in RPTEC; type: cell-based
Experimental: Measurement of ^33PO4 uptake and ^14C-α-methyl D-glucose uptake. A novel technique, scintillation proximity assay (SPA), was used to measure ^33PO4 uptake in-vitro. Human renal proximal-tubule primary cells (RPTEC) were purchased from Clonetics-Biowhittaker (Walkersville, Md.) (cat. no. CC2553) and were cultured and subcultured using the manufacturers recommended protocols, methods, buffers and media (cat. nos. CC3190, CC5034). Also a human renal cell-line (Hu-CL8) was cultured as previously described (Rowe et al. Candidate 56 and 58 kDa protein(s) responsible for mediating the renal defects in oncogenic hypophosphatemic osteomalacia. Bone 18(2):159-169, 1996). For ^33PO4-uptake measurement cells were grown in REBM media supplemented with 5% fetal calf serum (REBM-FCS) to 80% confluence (Clonetics-Biowhitaker, Walkersville, Md.: cat. nos. CC2553, CC3190 and CC5034) and seeded into 96 well (3000 cells/well) cytostar-T scintillating-microplates (Amersham-Pharmacia Biotech, Piscataway, N.J.: cat. no. RPNQ 0162). Cells were then cultured in 200 μL of REBM-FCS media for 24 h. Media was then replaced with serum free media (REBM) and the cells incubated for a further 3-4 h with Hu-MEPE, PTH (1-34) or media control respectively in REBM media. The concentrations of PTH (1-34) and Hu-MEPE were […] and each experimental dose was repeated eight times for statistical analysis. Following incubation media was removed and replaced with either phosphate uptake buffer (PUB) consisting of 150 mM NaCl/1 mM Cacl2/1.8 mM MgSO4/10 mM HEPE pH 7.0/0.1 mM phosphate buffer pH 7.0 and 3 uCi mL^−1 33P as orthophosphoric acid (18 MBq/mL or 5775.7 Gbq/mg stock solution Perkin Elmer, Wellesley, Mass.: cat. no. NEZ080). In order to determine the Na-dependent phosphate co-transporter activity a separate set of control cells were incubated with the same buffer but with choline chloride (150 mM) substituted for NaCl (CHUB buffer). After 10 min at 37° C. the reaction was terminated by removing the PUB and CHUB buffers and replacing with STOP buffer (CHUB buffer without radioisotope). The cytostar scintillation plates were then directly assayed for counts (CPM) using a Hewlett-Packard (Palo Alto, Calif.) Multiplate Top-counter calibrated for ^33P SPA assay. Due to the unique design of the 96 well cytostar-plate radioactive decay in solution is not detected by the counter. In contrast, radioisotope attached to or taken into the cells initiates release of plastic-scintillant photons that are detected by the top-counter photo-multiplier tube. Thus, no washes are required and direct CPM can be counted in living cells. Following CPM determination the buffers were removed from the living cells and fresh media supplemented with cell-titre-96 (Promega-Biotech, Madison, Wis.: cat. no. G5421) cell-number detection media. Cells were then further incubated at 37° C. for 4 h. Conversion of a tetrazolium salt to a colored formazan product by living cells was then measured at 490 nm using a 96 well multi-well spectrophotometer with KC-4 software (absorbance at 490 nm is directly proportional to the number of living cells). Na-dependent ^33P uptake was then calculated by subtracting background counts and the choline chloride non Na-dependent ^33P uptake and results expressed as ^33PO4 femtomoles/10^4-cells/6 min. […]

[4] = target: rabbit polyclonal antibodies raised against ASARM-peptide (SEQ ID NO. 5); test: competitive chemiluminescent ELISA: anti-ASARM polyclonal on protein-G plates, 0.5 ng/mL biotinylated ASARM-peptide as competitor, one site binding hyperbola of % quenching
[5] = target: rabbit polyclonal antibodies raised against ASARM-peptide (SEQ ID NO. 5); test: competitive chemiluminescent ELISA: anti-ASARM polyclonal on protein-G plates, 0.5 ng/mL biotinylated ASARM-peptide as competitor

## CGSGYTDLQERGDNDISPFSGDGQPF (Homo sapien) [control peptide, reference compound]
[1]
  effect on BMP2-mediated mineralization (von Kossa staining): failed to elicit any changes in mineralization

## PTH (1-34): parathyroid hormone (PTH 1-34), used as a positive control (SVSEIQLMHNLGKHLNSMERVEWLRKKLQDVHNF; Parathyroid hormone; UniProt P01270 32-65, looked up, fragment) [reference compound]
Male ICR-Swiss mice; 7 h, PTH 80 ug/kg/30 h, vehicle 7.8%
  fractional excretion of phosphate (FEP): 27.4%
Male ICR-Swiss mice; 7 h, PTH 80 ug/kg/30 h i.p., vehicle 31.8
  urine phosphate: 61.6 mg/dL
Male ICR-Swiss mice; 31 h, PTH 80 ug/kg/30 h, vehicle 28.7%
  fractional excretion of phosphate (FEP): 53.3%
Male ICR-Swiss mice; 31 h, PTH 80 ug/kg/30 h, vehicle 65.06
  serum alkaline phosphatase: 46.3 U/L
Male ICR-Swiss mice; 31 h, PTH 1-34 80 ug/kg/30 h, pooled, vehicle 25.2
  serum 1,25-dihydroxy vitamin-D3: 61.2 pg/mL
Male ICR-Swiss mice; 31 hours, PTH 80 ug/kg/30 h i.p., vehicle 11.94
  serum phosphate: 8.32 mg/dL
Male ICR-Swiss mice; 31 h second urine, PTH 80 ug/kg/30 h, vehicle 175.9
  urine phosphate: 238.3 mg/dL
Male ICR-Swiss mice; after 7 hours, i.p., PTH and MEPE animals
  serum phosphate vs vehicle: no significant differences
Male ICR-Swiss mice; after 7 hours, PTH 80 ug/kg/30 h, low Hu-MEPE dose
  serum calcium vs vehicle: significantly elevated
Male ICR-Swiss mice; after 31 hours, PTH
  urine calcium vs Hu-MEPE and vehicle: significantly hypocalciuric
[2]
  inhibition of Na+ dependent phosphate co-transport: Dose dependent inhibition
[3]
  inhibition of Na+ dependent phosphate co-transport: Dose dependent inhibition
[3]; listed as PTH
  inhibition of Na+ dependent phosphate co-transport: dose-dependent inhibition

## RDDSSESSDSGSSSESDGD (not fully specified)
[4]
  Kd: 7.5 ng/mL
[5]
  Qmax (quench maximum): 98.7%
